# Measurements from patent US8877748B2, “Heterocyclic fused anthraquinone derivatives, manufacturing method and pharmaceutical composition using thereof” (National Defense Medical Center, priority 2012, dated 2014).
# Values joined by “and” are separate entries in the source; they are usually repeats but may differ in a detail not shown here. Identical values can stand only once.
# Key:
# [1] = system: OVCAR-3; assay: NCI one-dose screening, ovarian cancer OVCAR-3; format: cell-based, human; conditions: 10 μM
# [2] = system: NCI-H460; assay: NCI one-dose screening, non-small cell lung cancer NCI-H460; format: cell-based, human; conditions: 10 μM
# [3] = system: NCI-H522; assay: NCI one-dose screening, non-small cell lung cancer NCI-H522; format: cell-based, human; conditions: 10 μM
# [4] = system: NCI-H23; assay: NCI one-dose screening, non-small cell lung cancer NCI-H23; format: cell-based, human; conditions: 10 μM
# [5] = system: A549/ATCC; assay: NCI one-dose screening, non-small cell lung cancer A549/ATCC; format: cell-based, human; conditions: 10 μM
# [6] = system: HCT-15; assay: NCI one-dose screening, colon cancer HCT-15; format: cell-based, human; conditions: 10 μM
# [7] = system: T-47D; assay: NCI one-dose screening, breast cancer T-47D; format: cell-based, human; conditions: 10 μM
# [8] = system: SR; assay: NCI one-dose screening, leukemia SR; format: cell-based, human; conditions: 10 μM
# [9] = system: human tumor cell lines; assay: NCI one-dose screening, Mean / Delta / Range of growth percent over all tested cell lines; format: cell-based; conditions: 10 μM
# [10] = system: HCT-116; assay: NCI one-dose screening, colon cancer HCT-116; format: cell-based, human; conditions: 10 μM
# [11] = system: SNB-19; assay: NCI one-dose screening, CNS cancer SNB-19; format: cell-based, human; conditions: 10 μM
# [12] = system: RXF, 393; assay: NCI one-dose screening, renal cancer RXF, 393; format: cell-based, human; conditions: 10 μM
# [13] = system: UACC-257; assay: NCI one-dose screening, melanoma UACC-257; format: cell-based, human; conditions: 10 μM
# [14] = system: NCI-H226; assay: NCI one-dose screening, non-small cell lung cancer NCI-H226; format: cell-based, human; conditions: 10 μM
# [15] = system: HOP-92; assay: NCI one-dose screening, non-small cell lung cancer HOP-92; format: cell-based, human; conditions: 10 μM
# [16] = system: MALME-3M; assay: NCI one-dose screening, melanoma MALME-3M; format: cell-based, human; conditions: 10 μM
# [17] = system: MDA, -MB-435; assay: NCI one-dose screening, breast cancer MDA, -MB-435; format: cell-based, human; conditions: 10 μM; listed under Melanoma
# [18] = system: U251; assay: NCI one-dose screening, CNS cancer U251; format: cell-based, human; conditions: 10 μM
# [19] = system: IGROV1; assay: NCI one-dose screening, ovarian cancer IGROV1; format: cell-based, human; conditions: 10 μM
# [20] = NCI one-dose screening, renal cancer A489; format: cell-based, human; conditions: 10 μM
# [21] = system: COLO 205; assay: NCI one-dose screening, colon cancer COLO 205; format: cell-based, human; conditions: 10 μM
# [22] = system: M14; assay: NCI one-dose screening, melanoma M14; format: cell-based, human; conditions: 10 μM
# [23] = system: UO-31; assay: NCI one-dose screening, renal cancer UO-31; format: cell-based, human; conditions: 10 μM
# [24] = system: MDA-MB-468; assay: NCI one-dose screening, breast cancer MDA-MB-468; format: cell-based, human; conditions: 10 μM
# [25] = system: OVCAR-8; assay: NCI one-dose screening, ovarian cancer OVCAR-8; format: cell-based, human; conditions: 10 μM
# [26] = system: SF-539; assay: NCI one-dose screening, CNS cancer SF-539; format: cell-based, human; conditions: 10 μM
# [27] = system: SN12C; assay: NCI one-dose screening, renal cancer SN12C; format: cell-based, human; conditions: 10 μM
# [28] = system: SNB-75; assay: NCI one-dose screening, CNS cancer SNB-75; format: cell-based, human; conditions: 10 μM
# [29] = system: BT-549; assay: NCI one-dose screening, breast cancer BT-549; format: cell-based, human; conditions: 10 μM
# [30] = system: KM12; assay: NCI one-dose screening, colon cancer KM12; format: cell-based, human; conditions: 10 μM
# [31] = system: NCI-H322M; assay: NCI one-dose screening, non-small cell lung cancer NCI-H322M; format: cell-based, human; conditions: 10 μM; Non-small cell lung cancer
# [32] = system: SK-OV-3; assay: NCI one-dose screening, ovarian cancer SK-OV-3; format: cell-based, human; conditions: 10 μM
# [33] = system: PRMI-8226 cell line; assay: NCI one-dose screening, leukemia PRMI-8226; format: cell-based, human; conditions: 10 μM
# [34] = system: MCF7; assay: NCI one-dose screening, breast cancer MCF7; format: cell-based, human; conditions: 10 μM
# [35] = system: MDA-MB-231/ATCC; assay: NCI one-dose screening, breast cancer MDA-MB-231/ATCC; format: cell-based, human; conditions: 10 μM
# [36] = system: UACC-62; assay: NCI one-dose screening, melanoma UACC-62; format: cell-based, human; conditions: 10 μM
# [37] = system: CCRF-CEM; assay: NCI screening platform one-dose single concentration screening, leukemia CCRF-CEM; format: cell-based, human; conditions: 10 μM
# [38] = system: SF-295; assay: NCI one-dose screening, CNS cancer SF-295; format: cell-based, human; conditions: 10 μM
# [39] = system: HS 578-T; assay: NCI one-dose screening, breast cancer HS 578-T; format: cell-based, human; conditions: 10 μM; Breast cancer
# [40] = system: SF-268; assay: NCI one-dose screening, CNS cancer SF-268; format: cell-based, human; conditions: 10 μM
# [41] = system: PC-3; assay: NCI one-dose screening, prostate cancer PC-3; format: cell-based, human; conditions: 10 μM
# [42] = system: 786-O; assay: NCI one-dose screening, renal cancer 786-O; format: cell-based, human; conditions: 10 μM
# [43] = system: PC-3 prostate cancer cell line; assay: SRB assay cell viability, PC-3 prostate cancer cell line; format: cell-based, human; conditions: Homo sapiens, PC-3 prostate cancer cell line, Table II prints no unit, μM printed, read-out: SRB assay: 50% inhibition of cancer cell proliferation of sample concentration (IC50) of PC-3 prostate cancer cell line
# [44] = system: SK-MEL-28; assay: NCI one-dose screening, melanoma SK-MEL-28; format: cell-based, human; conditions: 10 μM
# [45] = system: OVCAR-4; assay: NCI one-dose screening, ovarian cancer OVCAR-4; format: cell-based, human; conditions: 10 μM
# [46] = system: DU145; assay: NCI one-dose screening, prostate cancer DU145; format: cell-based, human; conditions: 10 μM
# [47] = system: HCC-2998; assay: NCI one-dose screening, colon cancer HCC-2998; format: cell-based, human; conditions: 10 μM
# [48] = system: LOX IMVI; assay: NCI one-dose screening, melanoma LOX IMVI; format: cell-based, human; conditions: 10 μM
# [49] = system: SK-MEL-2; assay: NCI one-dose screening, melanoma SK-MEL-2; format: cell-based, human; conditions: 10 μM
# [50] = system: MOLT-4; assay: NCI one-dose screening, leukemia MOLT-4; format: cell-based, human; conditions: 10 μM
# [51] = system: HL-60, TB; assay: NCI one-dose screening, leukemia HL-60, TB; format: cell-based, human; conditions: 10 μM
# [52] = system: NCl/ADR-RES; assay: NCI one-dose screening, breast cancer NCl/ADR-RES; format: cell-based, human; conditions: 10 μM; listed under Ovarian cancer
# [53] = system: CAKI-1; assay: NCI one-dose screening, renal cancer CAKI-1; format: cell-based, human; conditions: 10 μM
# [54] = system: TK-10; assay: NCI one-dose screening, renal cancer TK-10; format: cell-based, human; conditions: 10 μM
# [55] = system: HOP-62; assay: NCI one-dose screening, non-small cell lung cancer HOP-62; format: cell-based, human; conditions: 10 μM
# [56] = system: K562cell line; assay: NCI one-dose screening, leukemia K562; format: cell-based, human; conditions: 10 μM
structure (smiles),measurement,setting,value
"O=C1c2ccccc2C(=O)c2c1cc(Sc1ccc(Cl)cc1)c1nsnc21 [C22, 4-(4-chloro-phenylthio)anthra[2,1-c] [1,2,5]thiadiazol-6,11-dione]",Growth Percent OVCAR-3,[1],118.64%
same,Growth Percent NCI-H460,[2],99.52%
same,Growth Percent NCI-H522,[3],102.62%
same,Growth Percent NCI-H23,[4],104.26%
same,Growth Percent A549/ATCC,[5],103.88%
same,Growth Percent HCT-15,[6],98.10%
same,Growth Percent T-47D,[7],85.04%
same,Growth Percent SR,[8],110.89%
same,Growth Percent Delta,[9]; delta over all cell lines,51.95%
same,Growth Percent Mean,[9]; mean over all cell lines,98.08%
same,Growth Percent Range,[9]; range over all cell lines,93.67%
same,Growth Percent HCT-116,[10],98.25%
same,Growth Percent SNB-19,[11],105.18%
same,Growth Percent RXF 393,[12],117.52%
same,Growth Percent UACC-257,[13],95.45%
same,Growth Percent NCI-H226,[14],94.77% and 93.41%
same,Growth Percent HOP-92,[15],101.98%
same,Growth Percent MALME-3M,[16],105.10%
same,Growth Percent MDA-MB-435,[17],106.67%
same,Growth Percent U251,[18],103.69%
same,Growth Percent IGROV1,[19],84.93%
same,Growth Percent A498,[20],93.03%
same,Growth Percent COLO 205,[21],121.41%
same,Growth Percent M14,[22],105.44%
same,Growth Percent UO-31,[23],79.46%
same,Growth Percent MDA-MB-468,[24],46.13%
same,Growth Percent OVCAR-8,[25],88.60%
same,Growth Percent SF-539,[26],107.00%
same,Growth Percent SN12C,[27],86.95%
same,Growth Percent SNB-75,[28],91.73%
same,Growth Percent BT-549,[29],98.88%
same,Growth Percent KM12,[30],101.50%
same,Growth Percent NCI-H322M,[31],100.11%
same,Growth Percent SK-OV-3,[32],108.96%
same,Growth Percent RPMI-8226,[33],90.15%
same,Growth Percent MCF7,[34],86.11%
same,Growth Percent MDA-MB-231/ATCC,[35],89.05%
same,Growth Percent UACC-62,[36],90.65%
same,Growth Percent CCRF-CEM,[37],79.34%
same,Growth Percent SF-295,[38],97.26%
same,Growth Percent HS 578T,[39],103.37%
same,Growth Percent SF-268,[40],104.55%
same,Growth Percent PC-3,[41],86.94%
same,Growth Percent 786-0,[42],108.70%
same,IC50,[43],> 15 µM
same,Growth Percent SK-MEL-28,[44],130.48%
same,Growth Percent OVCAR-4,[45],76.82%
same,Growth Percent DU145,[46],117.15%
same,Growth Percent HCC-2998,[47],106.82%
same,Growth Percent LOX IMVI,[48],83.24%
same,Growth Percent SK-MEL-2,[49],109.49%
same,Growth Percent MOLT-4,[50],59.21%
same,Growth Percent HL-60(TB),[51],87.34%
same,Growth Percent NCI/ADR-RES,[52],102.42%
same,Growth Percent CAKI-1,[53],86.97%
same,Growth Percent TK-10,[54],139.80%
same,Growth Percent HOP-62,[55],94.80%
same,Growth Percent K562,[56],94.91%
"CC(C)(C)c1ccc(CSc2cc3c(c4nsnc24)C(=O)c2ccccc2C3=O)cc1 [C57, 4-(4-tert-butylbenzylthio)anthra[2,1-c] [1,2,5]thiadiazol-6,11-dione]",melting point,,256 to 257 °C
same,IC50,[43],7.47 µM
"CCN(CC)c1cc2c(c3nsnc13)C(=O)c1ccccc1C2=O [C5, 4-(diethylamino)anthra[2,1-c][1,2,5] thiadiazol-6,11-dione]",melting point,,204 to 205 °C
same,IC50,[43],1.1 µM
"Cc1ccc(C)c(Sc2cc3c(c4nsnc24)C(=O)c2ccccc2C3=O)c1 [C20, 4-(2,5-dimethyl-phenyl-thio)anthra[2,1-c] [1,2,5]thiadiazol-6,11-dione]",melting point,,243 to 244 °C
same,IC50,[43],7.44 µM
